Test system: DUOX 1 gene
Test: DUOX 1 gene expression by calcium concentration (Q-RT-PCR)
Type: cell-based
Details: normal human epidermal keratinocytes, 1.2 mM calcium (high calcium group) vs 120 μM (control), 24 hours; FIG. 1
Method: Normal human epidermal keratinocytes (human epidermal neonatal keratinocyte cells) are purchased from Lonza, Inc. (Walkersville, Md., USA) and subcultured, and then incubated in a CO2 incubator under a condition of 37° C. and 5% CO2. Cell culture is prepared according to the instructions of Lonza, Inc. (Walkersville, Md., USA). KGM-2 bullet kit [bovine pituitary extract (BPE), 2 ml), human epidermal growth factor (hEGF, 0.5 ml), insulin (0.5 ml), hydrocortisone (0.5 ml), transferrin (0.5 ml), epinephrine (0.5 ml), gentamycin sulfate+amphofericin B (GA-1000, 0.5 ml)] are added to KBM-2 (Clonetics CC-3103) medium (500 ml).
120 μM and 1.2 mM Calcium are added to the culture medium of human epidermal keratinocytes, respectively, and the cells are incubated for 24 hours. Each of them is used as a low calcium group (control group) and a high calcium group (test group). […] The isolated RNA is purified once more using an RNA kit (Qiagen RNeasy kit, Qiagen, Valencia, Calif.) and RNA quality is verified using Agilent 2100 BioAnalyzer (Agilent Technologies, Santa Clara, Calif., USA). cDNA is synthesized from the isolated RNA using a reverse transcription kit (Superscript Reverse Transcriptase (RT) II kit, Invitrogen, Carlsbad, Calif.), and expression of various NOX genes is quantitatively analyzed by means of real time-reverse transcription polymerase chain reaction (Q-RT-PCR). […]

[Ca+2] [calcium, Calcium]
expression of DUOX 1 gene: more remarkably increased

— patent US20130236904A1, “METHOD FOR SCREENING FOR MATERIALS FOR PROMOTING THE DIFFERENTIATION OF SKIN CELLS” (AMOREPACIFIC CORPORATION, priority 2010, published 2013)
